Reference: US4948782A, “A method of promoting the growth of domestic animals with erythromycin derivative containing composition” (Kitasato Kenkyusho, priority 1987, dated 1990)
Where two headings read alike, the source gives them in different places.

Key:
Clostridium perfringens = format: in vivo
cockerels of broilers = assay: Survival rate and growing rate of cockerels of broilers fed the compound in rye-rations for 14 days; format: in vivo, cockerels of broilers (Habbard); details: for Gain (Ratio): control = 100.0; for Gain: mean
Experimental: The feeds prepared by adding 0, 1.0, 10.0 and 100.0 ppm of 8,9-anhydroerythromycin A 6,9-hemiketal propargyl chloride respectively to rye-rations, were given to 160 cockerels of broilers (Habbard) of day zero, as 10 cockerels/group×4 repeats/ section, and allowed to be taken freely and continuously for 14 days. The cockerels were positioned to be accommodated for each groups by the Latin square method in an electrically heated battery brooder (the inside thereof is heated at a temperature of 32° C.). The survival rate and the growing rate were measured at 7 and 14 days of age.
Experimental Example 2 was repeated except for changing the administration compound to ethyl-nor-8,9-anhydroerythromycin A 6,9-hemiketal. The result of measuring the survival rate and the growing rate in cockerals of broilers (Habbard) of day zero was shown in Table 8.

`CC[C@H]1OC(=O)[C@H](C)[C@@H](O[C@H]2C[C@@](C)(OC)[C@@H](O)[C@H](C)O2)[C@H](C)[C@@H](O[C@@H]2O[C@H](C)C[C@H](N(C)CC)[C@H]2O)[C@@]2(C)CC(C)=C(O2)[C@H](C)[C@@H](O)[C@]1(C)O` [ethyl-nor-8,9-anhydroerythromycin A 6,9-hemiketal] was tested, and the “Number of Cl. perfringens” value (Clostridium perfringens; 1.0 ppm (section 2), day 0) was 7.03 log CFU/g, the “Number of Cl. perfringens” value (Clostridium perfringens; 1.0 ppm (section 2), day 7) was 7.20 log CFU/g and the “Number of Cl. perfringens” value (Clostridium perfringens; 10.0 ppm (section 3), day 0) was 6.83 log CFU/g. The “Number of Cl. perfringens” value (Clostridium perfringens; 10.0 ppm (section 3), day 7) was 7.54 log CFU/g, the “Number of Cl. perfringens” value (Clostridium perfringens; 100.0 ppm (section 4), day 0) was 6.59 log CFU/g and the “Number of Cl. perfringens” value (Clostridium perfringens; 100.0 ppm (section 4), day 7) was 7.17 log CFU/g. The Survival rate (cockerels of broilers; 1.0 ppm in feed, 0-7 days) was 97.5%, the “Gain (Ratio)” value (cockerels of broilers; 1.0 ppm in feed, 0-7 days) was 103.1 and the Gain (cockerels of broilers; 1.0 ppm in feed, 0-7 days) was 85.7 g/cockerel. The Survival rate (cockerels of broilers; 1.0 ppm in feed, 0-14 days) was 97.5%, the “Gain (Ratio)” value (cockerels of broilers; 1.0 ppm in feed, 0-14 days) was 106.8 and the Gain (cockerels of broilers; 1.0 ppm in feed, 0-14 days) was 263.3 g/cockerel. The Survival rate (cockerels of broilers; 10.0 ppm in feed, 0-7 days) was 97.5%, the “Gain (Ratio)” value (cockerels of broilers; 10.0 ppm in feed, 0-7 days) was 98.3 and the Gain (cockerels of broilers; 10.0 ppm in feed, 0-7 days) was 81.7 g/cockerel. The Survival rate (cockerels of broilers; 10.0 ppm in feed, 0-14 days) was 95.0%, the “Gain (Ratio)” value (cockerels of broilers; 10.0 ppm in feed, 0-14 days) was 102.6 and the Gain (cockerels of broilers; 10.0 ppm in feed, 0-14 days) was 253.1 g/cockerel. The Survival rate (cockerels of broilers; 100.0 ppm in feed, 0-7 days) was 100.0%, the “Gain (Ratio)” value (cockerels of broilers; 100.0 ppm in feed, 0-7 days) was 104.3 and the Gain (cockerels of broilers; 100.0 ppm in feed, 0-7 days) was 86.7 g/cockerel. For the same molecule, the Survival rate (cockerels of broilers; 100.0 ppm in feed, 0-14 days) was 100.0%, the “Gain (Ratio)” value (cockerels of broilers; 100.0 ppm in feed, 0-14 days) was 105.4 and the Gain (cockerels of broilers; 100.0 ppm in feed, 0-14 days) was 259.8 g/cockerel.
